Legend:
[1] = tested on: plasma LDL concentration; assay: Case reports of subjects (n=4): plasma LDL concentration, reduction compared to nontreated condition (FIG. 2); assay type: in vivo, human; settings: n=4 subjects; berberine 500 mg alone or with 48 mg resveratrol (pure, or as 160 mg REVIFAST)
Source text: Information were also collected from case reports of a number of subjects supplemented in their diet substantially as above.
As it can be seen, when the subjects are supplemented with berberine the levels of LDL cholesterol were reduced. […] It is therefore believed that it is the way in which resveratrol is absorbed that influences the synergistic action of resveratrol to reduce LDL cholesterol by berberine.

[2] = tested on: LDL cholesterol; assay: Case report: LDL cholesterol level under dietary supplementation (Example 9); assay type: in vivo, human; settings: The patient, initial LDL cholesterol 3.91 mM; berberine 500 mg for 1 month; Revifast dosage as in examples 2-5
Protocol: […] The patient is […] and is classified borderline for the lipid profile with an LDL cholesterol level of 3.91 mM. In their dietary supplement scheme, they took a berberine 500 mg supplement separately for 1 month, taking lipoprotein levels to 3.4 mM. […] The quantities assumed by […] FG are such that the dosage used is that shown in examples 2-5.

[3] = tested on: Low-Density lipoprotein Receptor (LDL-R); assay: Transcriptional expression of the LDL receptor in hepatocytes in vitro (Example 1, FIG. 1); assay type: cell-based; settings: 24 hours, Berberine 5 μg/mL, Resveratrol 3 μM, each applied alone, vs CTRL (no treatments)
Source text: It could be said that the concentration tested is bio-equivalent to that of Berberine with a concentration of 50% higher than that administered according to the work of Kong et to 2004. (Kong W, Wei J, Abidi P, Lin M, Inaba S, Li C, Wang Y, Wang Z, Si S, Pan H, 10 Wang S, Wu J, Wang Y, Li Z, Liu J, Jiang J D. Berberine is a novel cholesterol-lowering drug working through a unique mechanism distinct from statins. Nat Med. 2004 December; 10(12):1344-51)).
Resveratrol being without effect alone is therefore a synergy, never observed before. The innovation is therefore in having observed a synergy between resveratrol and berberine with resveratrol which enhances the effects of berberine in the expression of LDL-R. The results are summarized in FIG. 1.

transcription of the LDL receptor (effect in words) [3]	Structure (SMILES)	effect on plasma LDL cholesterol (in words) [1]	LDL cholesterol level (plasma concentration) [2] [mM]
tends to increase	COc1ccc2cc3[n+](cc2c1OC)CCc1cc2c(cc1-3)OCO2 [Berberine]	reduced	3.4
no apparent effect	Oc1ccc(C=Cc2cc(O)cc(O)c2)cc1 [resveratrol, 3,5,4′-trihydroxystilbene]		
